{
  "source": "patent USRE43580E1",
  "about": "“Nasal calcitonin formulations” (Unigene Laboratories, Inc., priority 2000, dated 2012)",
  "origin": "cited, not measured here",
  "key": {"[1]": {"conditions": "preservative in the nasal formulation"}, "nasal mucosa": {"tested_on": "nasal mucosa", "conditions": "in vivo"}, "[2]": {"tested_on": "mucocilary transport velocity", "conditions": "ex vivo frog palate"}, "[3]": {"tested_on": "respiratory mucosal tissue", "conditions": "exposed in vitro"}, "rhinitis medicamentosa": {"tested_on": "rhinitis medicamentosa", "conditions": "healthy volunteers, decongestant nasal spray containing the preservative"}},
  "data": [
    {"substance": "benzalkonium chloride", "values": [
      {"measurement": "Absorption of salmon calcitonin", "setting": "[1]", "result": "enhance the absorption of salmon calcitonin"},
      {"measurement": "Effect on nasal mucosa", "setting": "nasal mucosa", "result": "adverse effect on nasal mucosa"},
      {"measurement": "Mucocilary transport velocity", "setting": "[2]", "result": "significant slowing"},
      {"measurement": "Morphology of respiratory mucosal tissue", "setting": "[3]", "result": "severe morphological alterations"},
      {"measurement": "Rhinitis medicamentosa", "setting": "rhinitis medicamentosa", "result": "aggravate rhintis rhinitis medicamentosa"}
    ]}
  ]
}
